Measured values from US20090131356A1, “miR-15, miR-26, miR-31, miR-145, miR-147, miR-188, miR-215, miR-216, miR-331, mmu-miR-292-3P REGULATED GENES AND PATHWAYS AS TARGETS FOR THERAPEUTIC INTERVENTION” (ASURAGEN, INC., priority 2006, published 2009).

Experiments:
[1] = system: SCLC and NSCLC cells; details: various lung cancer cells, SCLC and NSCLC (Tsai et al., 1993; Ohsaki et al., 1992); cited from earlier work
[2] = system: H226 lung cancer cells; assay: Long-term growth curve with repeated electroporation, H226; format: cell-based, human; details: 1.6 μM electroporated, repeated on days 6, 17 and 25; day 31; relative to control cells (100%)
Description: To evaluate the therapeutic activity of hsa-miR-147 over an extended period of time, the inventors conducted growth curve experiments in the presence of miRNA for up to 31 days in H226 lung cancer cells. Since in vitro transfections of naked interfering RNAs, such as synthetic miRNA, are transient by nature and compromised by the dilution of the oligo during ongoing cell divisions, miRNA was administered at multiple time points (Bartlett et al., 2006; Bartlett et al., 2007). To accommodate miRNA delivery into a large quantity of cells, hsa-miR-147 or negative control miRNA were delivered by the electroporation method. Briefly, 1×10^6 H226 were electroporated in triplicate with 1.6 μM hsa-miR-147 or negative control using the BioRad Gene Pulser Xcell™ instrument (BioRad Laboratories Inc., Hercules, Calif., USA), seeded and propagated in regular growth medium. When the control cells reached confluence (days 6, 17 and 25), cells were harvested, counted and electroporated again with the respective miRNAs. […] The population doubling was calculated from these electroporation events using the formula PD=ln(Nf/N0)/ln2 and adjusting for the fact that approximately 72% of newly seeded cells adhere to the plate. […]

[3] = system: human H460 lung cancer xenografts; assay: Established H460 lung tumor xenograft, intratumoral injection of lipid-formulated miRNA; format: in vivo, NOD/SCID mice; details: intratumoral 6.25 μg on days 11, 14 and 17, siPORT amine formulation; day 19
Description: Delivery of hsa-miR-147 into human lung cancer cells prior to implantation into the animal inhibited the formation of lung tumor xenografts. […] To explore this possibility, 3×10^6 human H460 non-small cell lung cancer cells were mixed with BD Matrigel™, (BD Biosciences; San Jose, Calif., USA; cat. no. 356237) in a 1:1 ratio and subcutaneously injected into the lower back of each of 23 NOD/SCID mice (Charles River Laboratories, Inc.; Wilmington, Mass., USA). Once animals developed palpable tumors (day 11 post xenograft implantation), each animal in a group of six received intratumoral injections of 6.25 μg hsa-miR-147 (Dharmacon, Lafayette, Colo.) formulated with the lipid-based siPORT™ amine delivery agent (Ambion, Austin, Tex.; cat. no. AM4502) on days 11, 14 and 17. A control group of six animals each received intratumoral injections of 6.25 μg negative control miRNA (NC; Dharmacon, Lafayette, Colo.), following the same injection schedule that was used for hsa-miR-147. Given an average mouse weight of 20 g, this dose equals 0.3125 mg/kg. […] Caliper measurements of tumors were taken every 1-2 days, and tumor volumes were calculated using the formula, Volume=length×width×width/2, in which the length is greater than the width.

Row | Compound | IC50 [1] | inhibition of H226 cell growth [2] | remaining cells [2] | average tumor size [3]
1 | COc1cc([C@@H]2c3cc4c(cc3[C@@H](O[C@@H]3O[C@@H]5CO[C@@H](C)O[C@H]5[C@H](O)[C@H]3O)[C@H]3COC(=O)[C@H]23)OCO4)cc(OC)c1O [Etoposide, etoposide] | 1 to 25 µM |  |  | 
2 | hsa-miR-147: Synthetic pre-miR-147 (Ambion AM17100; Dharmacon in vivo); mature sequence GUGUGUGGAAAUGCUUCUGC, MIMAT0000251, SEQ ID NO:114 (synthetic pre-miR (Ambion/Dharmacon), chemistry not given here; listed as Homo sapiens) |  | 90.9% | 9.1% | 260 mm^3
